Laboratory results taken from article PMC9918429, “ATX-101, a cell-penetrating protein targeting PCNA, can be safely administered as intravenous infusion in patients and shows clinical activity in a Phase 1 study” (Oncogene, 2022).
“Also recorded” adds a separate entry of the source. Ends that are not written are not given here.

What was measured:
cell cultures = details: cited from earlier work
advanced solid tumors = experiment: Tumor assessment by investigators according to RECIST V1.1; type: in vivo, human
Procedure: Tumors were assessed by investigators according to RECIST V1.1 at baseline, after 6 weeks and every 3 months thereafter. Efficacy Population: patients with at least one tumor assessment (RECIST) after treatment start

[1] = Plasma pharmacokinetics of ATX-101 on first infusion day, non-compartmental (Phoenix WinNonlin); details: for tmax Median [Min;Max]: from infusion start
Procedure: Blood samples for a complete pharmacokinetic (PK) profile were collected on the first infusion day. On days 8, 15, and 36 samples were collected during the infusion only. Plasma trough levels were assessed on Days 3 and Day 43.
Primary PK Population: patients with at least 2 measurable plasma concentration time points after the end of infusion on D1

[2] = tested on: patients with advanced solid tumors; experiment: Phase 1 first-in-human study, weekly intravenous ATX-101 infusion: adverse events, DLT, infusion-related reactions (CTCAE v4.03); type: in vivo
Procedure: Here we report results of the ATX-101 first-in-human study in patients with advanced solid tumors. This open-label, single arm Phase 1 study, consisting of two sub-studies, investigated 4 doses of ATX-101 (20, 30, 45, and 60 mg/m^2) administered intravenously every week. In a first, dose-escalation study pre-defined dose-limiting toxicities and PK were assessed (for DLT definition see Supplementary Table 1). If, after 6 weeks, no tumor progression was measured, treatment could be continued in a second, long-term follow-up study until disease progression or unacceptable toxicity with the primary objective safety/tolerability. Efficacy was a secondary endpoint in both sub-studies. The studies were registered in the Australian New Zealand Clinical Trials Registry (ANZCTR) under the following IDs: 375262 and 375319. Details on methods are given in the Supplementary information.
This Phase 1, open-label, single arm, first-in-human study consisted of two sub-studies. Study ATX101-01 was a dose escalation study in accordance with the traditional 3+3 escalation design^1. Patients were treated over 6 weeks when the first tumor assessment was done. In case of disease stabilization or tumor response, patients could continue treatment in the long-term follow-up study ATX101-02. The data analysis has been combined for both studies.
ATX-101 was administered weekly as intravenous infusion.
Due to the occurrence of infusion related reactions (IRR) in the first patient, a premedication was implemented for subsequent patients. Premedication was optimized by the Safety Monitoring Committee (SMC) during the study resulting in the final recommendation to administer corticosteroids, paracetamol, H1 and H2 inhibitors. This medication became standard practice in Cohort 3. Montelukast (anti-leukotriene) was added in Cohort 4. In addition, on each infusion day, the infusion rate had to be increased in 5 steps from 5 mg/h to a maximum of 120 mg/h.
ATX-101 was administered in 4 dosing cohorts. The starting dose was 20 mg/m², escalated to 30 mg/m², 45 mg/m² and 60 mg/m². An SMC, comprising all principal investigators and medical monitors of sponsor and CRO, recommended dose changes and modifications after the end of each completed cohort and during the entire study.
Toxicities were graded as mild, moderate, severe, life threatening or related to death using the Common Terminology Criteria for Adverse Events (CTCAE) Version 4.03. Safety assessments included the incidence of dose limiting toxicities (DLTs), treatment-emergent adverse events (TEAE), laboratory parameters, ECG, performance status, physical examinations. DLT were defined upfront, the DLT period included the first three treatment weeks.

[3] = Full-length peptide in cell culture media after peptide addition; type: in vitro ADME; details: cell cultures, 1–2 h after the peptide addition; unpublished data
[4] = 30 mg/m^2 i.v. infusion, first infusion day, plasma, primary PK population, n = 1
[5] = 45 mg/m^2 i.v. infusion, first infusion day, plasma, primary PK population, mean (SD), n = 4
[6] = 60 mg/m^2 i.v. infusion, first infusion day, plasma, primary PK population, mean (SD), n = 6
[7] = 60 mg/m^2 i.v. infusion, first infusion day, plasma, primary PK population, mean (SD), n = 8

For “Ac-MDRWLVKWKKKRKIRRRRRRRRRRR (N-terminus assumed) [ATX-101]”, the “Duration of activity (inhibition of growth, increased apoptosis) after addition of the peptide” value (cell cultures) is given as “up to five days”, the “Median time to treatment discontinuation” value (advanced solid tumors; 12 patients of long-term follow-up study, range [7–74]) is given as 18 weeks and the “Stable disease at the end of the dose escalation study” value (advanced solid tumors; Efficacy Population (n = 20), after 6 weeks, RECIST V1.1) is given as 70%. The “Disease stabilization over at least 4.1 months” value (shortened to “Disease stabilization over”) (advanced solid tumors; Efficacy Population, Cohort 1 (20 mg/m^2)) was 50%, the “Disease stabilization over” value (advanced solid tumors; Efficacy Population, Cohort 2 (30 mg/m^2)) was 33.3% and the “Disease stabilization over” value (advanced solid tumors; Efficacy Population, Cohort 3 (45 mg/m^2)) was 50%. For the same substance, the “Disease stabilization over” value (advanced solid tumors; Efficacy Population, Cohort 4 (60 mg/m^2)) was 33.3%, the “Partial or complete tumor responses” value (advanced solid tumors; Efficacy Population, RECIST V1.1) was “No tumor responses were observed; also recorded: No partial or complete responses were observed” and the “Stable disease at treatment discontinuation” value (advanced solid tumors; long-term follow-up, 5 of 12 patients) was 41.7%. The “Progressive disease at treatment discontinuation” value (advanced solid tumors; long-term follow-up, 7 of 12 patients) was 58.3%, the “tmax Median [Min;Max]” value ([1]; 20 mg/m^2 i.v. infusion, first infusion day, plasma, primary PK population, n = 1) was 2.02 [N/A] h and the “tmax Median [Min;Max]” value [1, 4] was 2.98 [N/A] h. The CL [1, 4] was 14,400 mL/h/m^2, the Vz [1, 4] was 7970 mL/m^2 and the kel [1, 4] was 1.81 h⁻¹. The “tmax Median [Min;Max]” value ([1]; 45 mg/m^2 i.v. infusion, first infusion day, plasma, primary PK population, median [min;max], n = 4) was 2.37 [1.32;2.82] h, the AUC0-t [1, 5] was 1980 (427) h × ng/mL and the AUC(0-inf) [1, 5] was 2200 (591) h × ng/mL. The CL [1, 5] was 21,500 (6120) mL/h/m^2, the Cmax [1, 5] was 1150 (166) ng/mL and the Vz [1, 5] was 13,100 (6830) mL/m^2. For the same substance, the kel [1, 5] was 2.25 (1.57) /h, the “tmax Median [Min;Max]” value ([1]; 60 mg/m^2 i.v. infusion, first infusion day, plasma, primary PK population, median [min;max], n = 8) was 4.75 [1.60;9.12] h and the CL [1, 6] was 17,800 (5880) mL/h/m^2. The MRT0-inf [1, 6] was 1.54 (0.66) h, the Vz [1, 6] was 12,900 (5520) mL/m^2 and the kel [1, 6] was 1.51 (0.46) /h. The AUC0-t [1, 7] was 3320 (1260) h × ng/mL, the Cmax [1, 7] was 1320 (815) ng/mL and the “Elimination half-life in blood” value ([1]; all dose levels (20, 30, 45, 60 mg/m^2)) was “less than 30 min”. For the same substance, the AUC0-t ([1]; human, plasma, iv, 20 mg/m2) was 666 ng·h/mL, the Cmax ([1]; human, plasma, iv, 20 mg/m2) was 468 ng/mL and the AUC0-t ([1]; human, plasma, iv, 30 mg/m2) was 1900 ng·h/mL. The AUC(0-inf) ([1]; human, plasma, iv, 30 mg/m2) was 2080 ng·h/mL, the Cmax ([1]; human, plasma, iv, 30 mg/m2) was 720 ng/mL and the MRT ([1]; human, plasma, iv, 30 mg/m2) was 36.7 min. The MRT ([1]; human, plasma, iv, 45 mg/m2) was 53.3 min, the AUC(0-inf) ([1]; human, plasma, iv, 60 mg/m2) was 3700 ng·h/mL and the “TEAE: Upper respiratory tract infection” value ([2]; Overall (n=25), Any Grade) was 3 (12.0) n (%). For the same substance, the “TEAE: Abdominal pain upper” value ([2]; Overall (n=25), Grade 3) was 1 (4.0) n (%), the “TEAE: Anemia” value ([2]; Overall (n=25), Grade 3) was 4 (16.0) n (%) and the “TEAE: Fatigue” value ([2]; Overall (n=25), Grade 3) was 1 (4.0) n (%). For the same substance, the “TEAE: Hyperglycemia” value ([2]; Overall (n=25), Grade 3) was 2 (8.0) n (%), the “TEAE: Patients with at least one event” value ([2]; Overall (n=25), Grade 3) was 15 (60.0) n (%) and the “Patients with infusion-related reactions (mild and moderate)” value ([2]; all 25 patients, 20-60 mg/m^2 weekly, despite premedication and stepwise infusion rate) was 64%. For the same substance, the “TEAE of CTCAE grade 4/5” value ([2]; all cohorts (n=25)) was “CTCAEs grade 4/5 were not observed”, the Maximum tolerated dose ([2]; doses up to 60 mg/m^2 weekly) was “not reached” and the “Dose-limiting toxicities (DLT)” value ([2]; in vivo) was “not observed”. The “IRR Grade 1 (mild), number of patients with IRR” value ([2]; in vivo) was 9 (36.0) n (%), the “IRR Grade 1 (mild), total number of IRRs” value ([2]; in vivo) was 17 N and the “IRR Grade 2 (moderate), number of patients with IRR” value ([2]; in vivo) was 13 (52.0) n (%). For the same substance, the “IRR Grade 2 (moderate), total number of IRRs” value ([2]; in vivo) was 45 N, the “IRR any grade, total number of IRRs” value ([2]; in vivo) was 62 N and the “IRR: Patients with at least one event, number of patients with IRR” value ([2]; in vivo) was 16 (64.0) n (%). The “Patients with IRR in whom IRR was seen on the first infusion day” value ([2]; in vivo) was 83%, the “TEAE: Abdominal pain upper” value ([2]; in vivo) was 3 (12.0) n (%) and the “TEAE: Anemia” value ([2]; in vivo) was 8 (32.0) n (%). For the same substance, the “TEAE: Diarrhea” value ([2]; in vivo) was 7 (28.0) n (%), the “TEAE: Dysgeusia” value ([2]; in vivo) was 3 (12.0) n (%) and the “TEAE: Erythema” value ([2]; in vivo) was 3 (12.0) n (%). For the same substance, the “TEAE: Fatigue” value ([2]; in vivo) was 12 (48.0) n (%), the “TEAE: Headache” value ([2]; in vivo) was 3 (12.0) n (%) and the “TEAE: Hyperglycemia” value ([2]; in vivo) was 3 (12.0) n (%). For the same substance, the “TEAE: Infusion related reactions” value ([2]; in vivo) was 16 (64.0) n (%), the “TEAE: Insomnia” value ([2]; in vivo) was 3 (12.0) n (%) and the “TEAE: Nausea” value ([2]; in vivo) was 4 (16.0) n (%). The “TEAE: Patients with at least one event” value ([2]; in vivo) was 25 (100.0) n (%), the “TEAE: Pyrexia” value ([2]; in vivo) was 4 (16.0) n (%) and the “TEAE: Vascular access site bruising” value ([2]; in vivo) was 3 (12.0) n (%). The “Treatment-related TEAE: Anemia” value ([2]; in vivo) was 2 (8.0) n (%), the “Treatment-related TEAE: Diarrhea” value ([2]; in vivo) was 4 (16.0) n (%) and the “Treatment-related TEAE: Dysgeusia” value ([2]; in vivo) was 3 (12.0) n (%). For the same substance, the “Treatment-related TEAE: Erythema” value ([2]; in vivo) was 2 (8.0) n (%), the “Treatment-related TEAE: Fatigue” value ([2]; in vivo) was 8 (32.0) n (%) and the “Treatment-related TEAE: Flushing” value ([2]; in vivo) was 2 (8.0) n (%). The “Treatment-related TEAE: Hyperglycemia” value ([2]; in vivo) was 2 (8.0) n (%), the “Treatment-related TEAE: Infusion-related reactions” value ([2]; in vivo) was 16 (64.0) n (%) and the “Treatment-related TEAE: Patients with at least 1 event” value ([2]; in vivo) was 23 (92.0) n (%). The “Treatment-related adverse events of grade 3” value ([2]; in vivo) was “one grade 3 adverse event”, the “Vital signs, ECG, and laboratory values” ([2]; in vivo) was “didn’t show a trend of changes” and the “Recommended phase 2 dose (RP2D), monotherapy” value ([2]; in vivo, iv) was 60 mg/m^2. The “Full-length peptide in the culture media” value [3] was “no full-length peptide was found”.
